The text below walks through data of US11976064B2, “Toll-like receptor agonists” (Pfizer Inc., priority 2019, dated 2024).

In general, EC50 refers to the concentration at which the effect is half-maximal. A lower EC50 goes with higher potency in that assay.

In the assay the target is T1, human toll like receptor 7 (hTLR7) (Homo sapiens, UniProt Q9NYK1).
T1 construct: host or cells: HEK293 (HEK-Blue hTLR7)
T1 sequence (Q9NYK1 27-1049): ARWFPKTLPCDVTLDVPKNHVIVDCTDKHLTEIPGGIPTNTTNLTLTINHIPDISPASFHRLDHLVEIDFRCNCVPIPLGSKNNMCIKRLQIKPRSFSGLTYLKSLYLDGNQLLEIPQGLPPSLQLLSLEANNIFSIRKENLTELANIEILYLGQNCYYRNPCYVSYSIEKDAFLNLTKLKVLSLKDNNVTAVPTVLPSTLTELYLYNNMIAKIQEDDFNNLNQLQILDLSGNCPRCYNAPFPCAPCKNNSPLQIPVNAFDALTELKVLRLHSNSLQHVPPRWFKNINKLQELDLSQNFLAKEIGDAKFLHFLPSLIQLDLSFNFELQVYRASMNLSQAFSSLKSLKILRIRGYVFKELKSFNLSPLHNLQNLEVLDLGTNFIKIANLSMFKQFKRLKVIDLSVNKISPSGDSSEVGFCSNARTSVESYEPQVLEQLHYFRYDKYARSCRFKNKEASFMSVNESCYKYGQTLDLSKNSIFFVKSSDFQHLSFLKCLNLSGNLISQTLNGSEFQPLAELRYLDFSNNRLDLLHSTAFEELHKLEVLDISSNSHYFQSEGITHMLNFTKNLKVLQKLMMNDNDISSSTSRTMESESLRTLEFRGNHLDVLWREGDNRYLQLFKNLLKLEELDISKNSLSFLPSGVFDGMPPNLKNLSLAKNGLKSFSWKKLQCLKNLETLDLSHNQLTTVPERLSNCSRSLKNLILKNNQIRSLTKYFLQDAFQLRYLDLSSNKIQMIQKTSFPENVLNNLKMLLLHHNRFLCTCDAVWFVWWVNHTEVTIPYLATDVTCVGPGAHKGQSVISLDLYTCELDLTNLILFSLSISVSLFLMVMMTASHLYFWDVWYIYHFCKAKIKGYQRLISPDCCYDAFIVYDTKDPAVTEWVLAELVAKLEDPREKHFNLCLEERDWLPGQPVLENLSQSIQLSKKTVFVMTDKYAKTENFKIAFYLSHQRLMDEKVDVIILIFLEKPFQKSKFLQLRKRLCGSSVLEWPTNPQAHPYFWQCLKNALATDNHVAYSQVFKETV
Kind of assay: hTLR7 cell functional assay (HEK-Blue hTLR7 SEAP reporter). The class given is cell-based. The conditions noted are these: HEK293 cells stably overexpressing hTLR7, SEAP reporter; geometric mean when tested more than once. As for the experimental part: The Examples described were tested for biological activity in functional cellular assays using HEK293 cells stably overexpressing human TLR7 or TLR8. The assays tested for the ability of each Example to stimulate secretion of interferon alpha (IFNα) in human primary blood mono nuclear cells (PBMC).
To determine the ability of each Example to activate the human toll like receptor 7 (hTLR7) or human toll like receptor 8 (hTLR8), cell-based reporter systems were utilized. HEK293 cells stably overexpressing either hTLR7 or hTLR8 along with a reporter gene containing an optimized secreted embryonic alkaline phosphatase gene (SEAP), under the control of the IFN-b minimal promoter fused to five NF-κB and AP-1-binding sites, were obtained from Invivogen (HEK-Blue™ hTLR7, cat #Hkb-ht1r7; HEK-Blue™ hTLR8, cat #Hkb-ht1r8). Stimulation of hTLR7 or hTLR8 in these cells activates NF-κB and AP-1 and induces the production of SEAP which can be quantified using an alkaline phosphatase detection reagent.
Cells were maintained in Dulbecco's Modified Eagle Media (DMEM) (containing Fetal Bovine Serum (FBS) heat inactivated (10%), Glutamax (2 mM), Penicillin/Streptomycin, Blasticidin (10 μg/ml), Zeocin (100 μg/ml) and Normocin (100 μg/ml)). On day one of the assay, Examples were prepared using 11-point half-log serial dilutions from a 10mM DMSO stock solution and 50 nl was spotted into 384-well Viewplates (PerkinElmer, cat #6007480). Positive control TLR7/8 agonist and negative control (DMSO, no Example) were also spotted within the assay plate and were used to determine percent effect during the analysis process. After resuspension in DMEM assay media containing FBS heat inactivated (10%), Glutamax (2 mM) and Penicillin/Streptomycin, 10,000 cells/20 μl/well were added to previously prepared plates. Plates were incubated overnight (16-20 hrs) at 37° C. in a 5% CO2 environment. Prewetted Microclime lids (Labcyte, LLS-0310) were used to prevent evaporation. On day two of the assay, QUANTI-Blue™ detection reagent was prepared by reconstituting QUANTI-Blue™ powder (InvivoGen, Rep-qb1) with 100 ml of sterile water and allowed to equilibrate to 37° C. for 15 minutes. 20 μl of QUANTI-Blue™ detection reagent was added to each well and plates were incubated at room temperature for 180 min. At the end of the incubation, plates were read on an Envision (Perkin Elmer) plate reader capturing absorbance at 650 nm.
Using Positive (TLR7/8 agonist) and Negative (DMSO) controls, the percent (%) effect was calculated for each Example using the following equation: effect=100−[100*{(Example−Positive Control)/(Negative Control−Positive Control)}]
The % effect at each concentration of each Example was calculated utilizing the ABase software suite (IBDS) and was relative to the amount of SEAP produced in the positive and negative control wells contained within each assay plate. The concentrations and % effect values for each Example were fit using a 4-parameter logistic model in ABase and the concentration of each Example that produced 50% response (EC50) was calculated.
The molecule `CCOCc1nc2c(N)nc(C)c(C)c2n1CC(C)(CO)COC` (single isomer, unassigned) [Example 6, 3-(4-amino-2-(ethoxymethyl)-6,7-dimethyl-1H-imidazo[4,5-c]pyridin-1-yl)-2-(methoxymethyl)-2-methylpropan-1-ol] returned a 50% effective concentration (EC50) of 49 nM.
To `CCOCc1nc2c(N)nc(C)c(C)c2n1CC(C)(CO)COC` (single isomer, unassigned) [Example 7, 3-(4-amino-2-(ethoxymethyl)-6,7-dimethyl-1H-imidazo[4,5-c]pyridin-1-yl)-2-(methoxymethyl)-2-methylpropan-1-ol] belongs 103 nM; to `CCOCc1nc2c(N)nc(C)c(C)c2n1CC(CO)CO` [Example 1, 2-((4-amino-2-(ethoxymethyl)-6,7-dimethyl-1H-imidazo[4,5-c]pyridin-1-yl)methyl)propane-1,3-diol], 644 nM.
To `CCOCc1nc2c(N)nc(C)c(C)c2n1CC(C)(CO)CO` [Example 2, 2-((4-amino-2-(ethoxymethyl)-6,7-dimethyl-1H-imidazo[4,5-c]pyridin-1-yl)methyl)-2-methylpropane-1,3-diol] belongs 54 nM; to `CCOCc1nc2c(N)nc3ccccc3c2n1CC(C)(CO)CO` [Example 3, 2-((4-amino-2-(ethoxymethyl)-1H-imidazo[4,5-c]quinolin-1-yl)methyl)-2-methylpropane-1,3-diol], 29 nM.
For `Cc1nc(N)c2nc(CC(F)(F)F)n(CC(C)(CO)CO)c2c1C` [Example 8, 2-((4-amino-6,7-dimethyl-2-(2,2,2-trifluoroethyl)-1H-imidazo[4,5-c]pyridin-1-yl)methyl)-2-methylpropane-1,3-diol] the value was 78 nM; for `CCOCc1nc2c(N)nc(C)c(C)c2n1CC(CC)(CO)CO` [Example 9, 2-((4-amino-2-(ethoxymethyl)-6,7-dimethyl-1H-imidazo[4,5-c]pyridin-1-yl)methyl)-2-ethylpropane-1,3-diol], 27 nM.
As for `CCCCc1nc2c(N)nc3ccccc3c2n1CC(C)(CO)CO` [Example 10, 2-((4-amino-2-butyl-1H-imidazo[4,5-c]quinolin-1-yl)methyl)-2-methylpropane-1,3-diol], the EC50 was found to be 4 nM.
To `CCCCc1nc2c(N)nc3c(c2n1CC(C)(CO)CO)CCCC3` [Example 13, 2-((4-amino-2-butyl-6,7,8,9-tetrahydro-1H-imidazo[4,5-c]quinolin-1-yl)methyl)-2-methylpropane-1,3-diol] belongs 9 nM; to `CCCCc1nc2c(N)nc3c(c2n1CC(C)(CO)CO)CCC3` [Example 14, 2-((4-amino-2-butyl-7,8-dihydrocyclopenta[b]imidazo[4,5-d]pyridin-1(6H)-yl)methyl)-2-methylpropane-1,3-diol], 14 nM; to `CCc1nc2c(N)nc3ccccc3c2n1CC(C)(CO)CO` [Example 15, 2-((4-amino-2-ethyl-1H-imidazo[4,5-c]quinolin-1-yl)methyl)-2-methylpropane-1,3-diol], 75 nM.
For `CCCc1nc2c(N)nc3ccccc3c2n1CC(C)(CO)CO` [Example 16, 2-((4-amino-2-propyl-1H-imidazo[4,5-c]quinolin-1-yl)methyl)-2-methylpropane-1,3-diol] the value was 19 nM.
